Measurements reported in US10473667B2, “Methods apparatuses and systems for detecting and quantifying phosphoproteins” (Oregon Health & Science University, priority 2012, dated 2019).

Assays:
STAT5* [1] = assay: QD probe assay for STAT5* in whole tumor cells; format: cell-based; conditions: tumor cells treated with Gleevec vs control (untreated) tumor cells, FIGS. 9A-9B
Excerpt: Briefly; control tumor cells and tumor cells treated with Gleevec™ were processed (fixing, permeabilization, blocking, washing, etc.) to specifically bind optimized concentrations of QD-anti-STAT5* antibody probes to STAT5* protein kinase. After washing, the cells were imaged in multiple slices using the imaging techniques described above, covering the entire 3D space of the cells. QD probe bound to the cells was then compiled and projected on the cell for quantification.

STAT5* [2] = assay: QD-STAT5* / QD-pSTAT5 probe assay in K562 CML cells; format: cell-based; conditions: clonal K562 CML cells, FIG. 11A
Excerpt: Relative amounts of bound QD probes in each condition were estimated using the algorithms described above.
An epifluorescent microscope was used to acquire images of cells labeled with QD-pCRKL and QD-pSTAT5 probes, including are digital images of tumor cells (FIG. 10A), tumor cells treated with dasatinib (FIG. 10B), and control cells with antibody omitted (FIG. 10C), Average phosphoprotein levels were computed as the average number of QD probes/cell.

SMILES: Cc1ccc(NC(=O)c2ccc(CN3CCN(C)CC3)cc2)cc1Nc1nccc(-c2cccnc2)n1 [Gleevec™, imatinib]
- STAT5* activation (QD-anti-STAT5* probe binding) (STAT5* [1]): marked decrease in STAT5* activation

SMILES: CC[C@H](C)C(=O)O[C@H]1C[C@@H](C)C=C2C=C[C@H](C)[C@H](CC[C@@H]3C[C@@H](O)CC(=O)O3)[C@H]21 [lovastatin]
- heterogeneity in pSTAT5 activity (SD of QDs/cell) (STAT5* [2]): reduced
